Test results taken from patent US20030092644A1, “Treatment of viral infections using levovirin” (priority 2002, published 2003).
Where two headings read alike, the source gives them in different places.

What was measured:
[1] = system: cells infected with Influenza B; test: Cytotoxicity in Influenza B assay; format: cell-based; conditions: read-out: Cytotoxicity (CC50) INFL. B
Method: (§1) In vitro testing for direct antiviral activity of Levovirin™ and Ribavirin against influenza A and B, parainfluenza 1 and 2, and respiratory syncytial virus were performed as described in Huffman, J. H. et al. Antiviral Chem. and Chemother. 1997, 8: 75-83 and Barnard, D. L. et al. Antiviral Chem. and Chemother 1997, 8: 223-233. Anti-human immunodeficiency virus activity was assessed by the National Cancer Institute using a procedure designed to detect agents acting at any stage of the virus reproductive cycle [Weislow, O. W. et al., J. Natl. Cancer Inst. 1989, 81: 577-5861. Anti-hepatitis B (HBV) activity was monitored by using an assay as described by Marion et al., Hepatology 1987, 7: 724-731. Anti-HIV activity and cytotoxicity for Ribavirin was determined from previous data [McCormick, J. B., Lancet, 1998, II: 1367-1369.

[2] = system: cells infected with Parainfluenza 3
[3] = system: respiratory syncytial virus (RSV); test: microbe, parasite or virus in culture; format: cell-based; conditions: human respiratory syncytial virus, read-out: Dir. Antiviral activity (EC50) RSV
Influenza (INFL) A = test: microbe, parasite or virus in culture; format: cell-based; conditions: read-out: Dir. Antiviral activity (EC50) INFL. A
IL-2 = test: SEB-activated T cell cytokine ELISA, IL-2; format: cell-based, human
[4] = system: human immunodeficiency virus (HIV); test: microbe, parasite or virus in culture; format: cell-based; conditions: Human immunodeficiency virus 1, read-out: Dir. Antiviral activity (EC50) HIV
Parainfluenza (PARA) 3 = test: organism not typed; format: cell-based, Parainfluenza 3; conditions: read-out: Dir. Antiviral activity (EC50) PARA 3
rats = conditions: rat, in vivo, po, 180 mg/kg
TNF-α = test: SEB-activated T cell cytokine ELISA, TNF-α; format: cell-based, human
[5] = system: cells infected with Parainfluenza 1
Hepatitis B (HBV) = test: microbe, parasite or virus in culture; format: cell-based; conditions: read-out: Dir. Antiviral activity (EC50) HBV
cells infected with HIV [6] = system: cells infected with HIV
Parainfluenza (PARA) 1 = test: organism not typed; format: cell-based, Parainfluenza 1; conditions: read-out: Dir. Antiviral activity (EC50) PARA 1
[7] = system: cells infected with Influenza A; test: Cytotoxicity in Influenza A assay; format: cell-based; conditions: read-out: Cytotoxicity (CC50) INFL. A
Method: as §1

IFN-γ = test: SEB-activated T cell cytokine ELISA, IFN-γ; format: cell-based, human
[8] = Cytotoxicity in Influenza B assay; format: cell-based; conditions: cells infected with Influenza B; read-out: Cytotoxicity (CC50) INFL. B
Method: as §1

Influenza (INFL) B = test: Direct antiviral activity, Influenza B; format: cell-based; conditions: Influenza B virus; read-out: Dir. Antiviral activity (EC50) INFL. B
Method: as §1

[9] = system: human immunodeficiency virus (HIV); conditions: read-out: Dir. Antiviral activity (EC50) HIV; cited from earlier work
cells infected with HIV [10] = conditions: cited from earlier work
[11] = Cytotoxicity in Influenza A assay; format: cell-based; conditions: cells infected with Influenza A; read-out: Cytotoxicity (CC50) INFL. A
Method: as §1

[12] = system: Concanavalin A induced hepatitis; format: in vivo; conditions: BALB/c mice, single i.p. dose 20 μg (1 mg/kg) 1 hr before i.v. 0.3 mg Con A; serum after 24 hr; PBS control about 1900 U/ml
[13] = SEB stimulated T cells, 48 hrs, 0-10 μM compound, +/- standard deviation, 100% = no effect

For NC(=O)c1ncn([C@H]2O[C@@H](CO)[C@H](O)[C@@H]2O)n1 [Levovirin™, 1-(β-L-ribofuranosyl)-1,2,4-triazole-3-carboxamide], the CC50 [1] was greater than 200 µM, the CC50 [2] was greater than 1000 µM and the EC50 [3] was greater than 1000 µM. The EC50 (Influenza (INFL) A) was greater than 200 µM, the “IL-2, mean percentage of activated control” value (IL-2) was 131 ± 12% and the EC50 [4] was greater than 600 µM. The EC50 (Parainfluenza (PARA) 3) was greater than 1000 µM, the “Clinical pathology (hemolytic anemia, leukopenia)” value (rats) was “did not produce any observable clinical pathology” and the “TNF-α, mean percentage of activated control” value (TNF-α) was 144 ± 7%. It also gave a CC50 [5] greater than 1000 µM, an EC50 (Hepatitis B (HBV)) greater than 100 µM and a CC50 (cells infected with HIV [6]) greater than 600 µM. The EC50 (Parainfluenza (PARA) 1) was greater than 1000 µM, the CC50 [7] was greater than 200 µM and the “IFN-γ, mean percentage of activated control” value (IFN-γ) was 122 ± 3%.

NC(=O)c1ncn([C@@H]2O[C@H](CO)[C@@H](O)[C@H]2O)n1 [Ribavirin] gave a CC50 [8] greater than 100 µM, an EC50 (Influenza (INFL) B) of 1.9 µM and an EC50 [3] of 5 µM. For the same compound, the EC50 (Influenza (INFL) A) was 6.1 µM, the “IL-2, mean percentage of activated control” value (IL-2; [13]) was 143 ±18% and the EC50 (Parainfluenza (PARA) 3) was 4 µM. For the same compound, the “Clinical pathology (hemolytic anemia, leukopenia)” value (rats) was “produced significant hemolytic anemia and leukopenia”, the “TNF-α, mean percentage of activated control” value (TNF-α; [13]) was 124 ± 4% and the EC50 (Hepatitis B (HBV)) was greater than 100 µM. For the same compound, the EC50 [9] was 40 µM, the CC50 (cells infected with HIV [10]) was greater than 40 µM and the EC50 (Parainfluenza (PARA) 1) was 40 µM. For the same compound, the CC50 [11] was 56 µM, the “IFN-γ, mean percentage of activated control” value (IFN-γ; [13]) was 131 ± 6% and the “Con A induced serum ALT level” value [12] was 969 U/ml.
